Test results published in US12577232B2, “N-heterocycle substituted tryptamine derivatives and methods of using” (ENVERIC B[…] INC., priority 2024, dated 2026).

Assays:
[1] = system: stressed C57BL/6-Elite mice; experiment: Mouse sucrose preference (SP) assay to assess antidepressant potential; type: in vivo; conditions: i.p., psilocin 3 mg/kg, compound (XV) 10 mg/kg; one day after administration
Experimental: Reduced intake of pleasurable substances, e.g., of sucrose water, is a validated behavioral measure of anhedonic/depressive-like state in rodents (Moreau et al., 1992, Eur. Neurpsychopharmocol. 2:43-49; Liu et al., 2018, Nature Protocols 13:1686-1698). […] In the SP assay, cohorts of mice are pre-stressed, leading to a depressed state. The ability of drugs to rescue this state are evaluated.
All animal protocols were approved by the University of Calgary Animal Care and Use Committee. C57BL/6-Elite mixed sex mice were obtained from Charles River Laboratories (Toronto, Canada) at 8-9 weeks old. Mice were maintained on a 12:12 h light/dark schedule (lights on at 07:00 hours) with ad libitum access to food and water and group-housed until 2 days prior to the start of the mild chronic stress paradigm, then mice were single-housed. […]
Mice were introduced to 1% sucrose solution in their drinking water for 24 hrs for 2 days prior to initial sucrose preference testing to reduce impact of novelty. […] The consumption in water, sucrose solution, and total intake of liquids was measured by weighing each bottle before and after the 24-hr experiment. The preference for sucrose was calculated as a percentage of the consumed sucrose solution from the total intake of both water and sucrose solutions. […]

[2] = target: T1, 5-HT2A receptor (Homo sapiens, UniProt P28223); experiment: Functional cell-based 5-HT2A assay, antagonism mode (CHO-K1/5-HT2A, 100 nM serotonin, calcium flux); conditions: CHO-K1/5-HT2A cells, with 100 nM serotonin
T1 construct: purchased PerkinElmer ES-313-M400UA
Description: A variety of 5-HT2A receptor engagement modes have been correlated with positive outcomes in the treatment of neurological disorders. While agonism is associated with a host of favourable effects, antagonizing the 5-HT2A receptor is also an attractive pharmacological approach. For example, antagonism is known to alleviate both dyskinesisa and psychosis in Parkinson's Disorder and holds promise for other psychiatric diseases (Mestre et al., 2013, Expert Opin. Investig. Drugs 22:411-421). Similarly positive outcomes are noted for inverse agonists (Cummings et al., 2014, Lancet, 383:533-540; Roberts, 2006, Curr. Opin. Invest. Drugs 7:653-660). […]
Stimulation of 5-HT2A coupled to the Gq family proteins leads to activation of the phospholipase C (PLC) pathway, ultimately resulting in the accumulation of cytosolic calcium (Cussac et al., Europ. J. Pharmacol., 2008, 594 (1-3), 32-38). […] Kinetic increases in intracellular calcium levels were measured immediately after addition of ligands every 6.4 s for a total of 3 min using the FlexStation 3 multimode microplate reader and SoftMax Pro 7.1 analysis software (Molecular Devices, moleculardevices.com). […] IC50 values were calculated from the normalized data from GraphPad PRISM software. […]

[3] = target: T1, 5-HT2A receptor; experiment: Functional cell-based 5-HT2A assay, agonism mode (CHO-K1/5-HT2A, Fluo-8 calcium flux); conditions: CHO-K1/5-HT2A cells
Experimental: Herein, functional, cell-based assays were conducted to determine (1) agonist potency and efficacy of drugs at the 5-HT2A receptor (agonist mode), and (2) antagonist potency at the 5-HT2A receptor (antagonist mode).
All cells were grown and maintained as a monolayer in Ham's F12 nutrient mix supplemented with 10% fetal bovine serum (FBS) and 400 μg/mL geneticin (G418) all from ThermoFisher Scientific and used according to the manufacturer's instructions. Cells were cultured and incubated at 37° C. in a humidified oxygen atmosphere with 5% CO2. To evaluate the activation of 5-HT2A signal transduction, cells were first seeded in tissue culture-treated, black-walled, clear-bottom 96-well plates (Thermo Scientific) at a density of 40,000 cells/well in 100 pl Ham's F12 nutrient mix supplemented with 2% FBS. Cells were cultured for 24 h in a humidified incubator at 37° C. and 5% CO2. Cells were then loaded with Fluo-8 calcium indicator dye for 1 h at 37° C. and an additional 30 min at room temperature as per the manufacturer's protocol. […] Kinetic increases in intracellular calcium levels were measured immediately after addition of test compounds every 6.4 s for a total of 3 min using the FlexStation 3 multimode microplate reader and SoftMax Pro 7.1 analysis software (Molecular Devices, moleculardevices.com). […] EC50 values were calculated from the normalized data from GraphPad PRISM software.

[4] = system: stressed C57BL/6-Elite mice; experiment: Mouse marble burying (MB) assay to assess anxiolytic potential; type: in vivo; conditions: i.p., psilocin 3 mg/kg, compound (XV) 10 mg/kg; vs Vehicle+Stress
Experimental: Marble burying behavior is used to measure the level of anxiety in a rodent when it encounters unfamiliar objects (Deacon, 2006, Nature Protocols 1:122-124). This assay is routinely applied to the study of chronically stressed mice, where drug candidates are evaluated for an ability to diminish stress-induced, anxiety-like behaviours (e.g., Wang et al., ACS Chem. Neurosci. 14:977-987). Positive results in this assay may be interpreted as an indication of therapeutic (anxiolytic) potential in the treatment of various psychiatric disorders. Herein, we applied the marble burying model to investigate whether selected drugs could alleviate anxiety behaviour in stressed mice.
All animal protocols were approved by the University of Calgary Animal Care and Use Committee. C57BL/6-Elite mixed sex mice were obtained from Charles River Laboratories (Toronto, Canada) at 8-9 weeks old. […]
On the testing days, 10 glass marbles (approx. 15 mm in diameter) were evenly spaced on 5 cm of wood-chip bedding (lightly tamped down to make a flat and even surface). […] The number of marbles buried to ⅔rds their depth was measured. Fully buried marbles were counted as 1 and partially (at least ⅔rds) buried marbles were counted as 0.5. […]

[5] = after intravenous (and oral) psilocybin administration (Raithatha et al., 2023); cited from earlier work

T1 sequence (P28223 whole entry): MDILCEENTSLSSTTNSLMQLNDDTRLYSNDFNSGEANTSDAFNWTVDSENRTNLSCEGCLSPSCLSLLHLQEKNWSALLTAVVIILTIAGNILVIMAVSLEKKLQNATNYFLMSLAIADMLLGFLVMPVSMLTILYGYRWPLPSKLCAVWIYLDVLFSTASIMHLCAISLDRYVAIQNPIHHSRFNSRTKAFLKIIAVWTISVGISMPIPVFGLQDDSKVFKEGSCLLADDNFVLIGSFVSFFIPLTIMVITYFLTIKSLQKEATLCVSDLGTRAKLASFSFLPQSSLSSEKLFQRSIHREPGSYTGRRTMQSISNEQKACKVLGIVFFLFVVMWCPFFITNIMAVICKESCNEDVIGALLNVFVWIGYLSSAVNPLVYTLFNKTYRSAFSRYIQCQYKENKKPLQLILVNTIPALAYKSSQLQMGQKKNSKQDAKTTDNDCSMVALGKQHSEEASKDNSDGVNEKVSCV

SMILES: CN(C)CCc1c[nH]c2cccc(O)c12 [psilocin, reference compound]
- sucrose preference behaviour in stressed mice vs no drug control [1]: significantly elevated
- engagement at the 5-HT2A receptor, antagonist mode [2]: antagonism
- engagement at the 5-HT2A receptor, agonist mode [3]: agonism
- anxiety-linked (marble burying) behavior in stressed mice [4]: rescued
- persistence in plasma [5]: > 8 h
